Values quoted from earlier work as cited in patent publication US12521383B2 (Slayback Pharma LLC, priority 2022, dated 2026).

Conditions: in water, pH independent solubility profile

aqueous solubility: 40 to 50 µg/mL
Structure (SMILES): COc1ccc(-n2nc(C(N)=O)c3c2C(=O)N(c2ccc(N4CCCCC4=O)cc2)CC3)cc1 [apixaban, 1-(4-methoxyphenyl)-7-oxo-6-[4-(2-oxopiperidin-1-yl)phenyl]-4,5-dihydropyrazolo [3,4-c] pyridine-3-carboxamide]
